These results are taken from ChEMBL document CHEMBL4665893, “Scalable Synthesis, In Vitro cccDNA Reduction, and In Vivo Antihepatitis B Virus Activity of a Phosphonomethoxydeoxythreosyl Adenine Prodrug” (J Med Chem, 2020).

Structures are written as SMILES. The source made the active and inactive calls. No cut-off for these calls is given here.

For orientation: IC50 means the concentration needed to halve the response being measured. A word on the IC90: it is the point of the concentration-response curve where the effect stands at 90%. Broadly, the CC50 is the concentration at which the toxic effect on the cells reaches its halfway point.

Series [1] is described as follows: Plasma concentration in C57BL/6 mouse at 6 mg/kg, po administered as single dose after 0.25 to 24 hrs by LC/MS/MS analysis. The series is classed as ADME, organism-based. As to conditions: in vivo, time 0.25-24 hrs.
In series [2] the test system is Hepatitis B virus. In words: Antiviral activity against ETV-resistant and adenovirus AdH294-7LR harboring wild-type HBV infected in human HepG2 cells assessed as viral replicative intermediate DNA level at 370 nM incubated for 5 days by Southern blot analysis (reference value: 100%). The series is classed as functional. As to conditions: time 5 day.
In series [3] the test system is Hepatitis B virus. In words: Antiviral activity against adenovirus AdH294-WT harboring wild-type HBV genotype D accession #V01460 infected in human HepG2 cells assessed as reduction in viral replicative intermediate DNAs at 4 to 1000 nM incubated for 5 days by Southern blot analysis. Particulars: time 5.0 day. It is filed as functional, organism-based.
For series [4], the system named is Hepatitis B virus. In words: Antiviral activity against adenovirus AdH294-WT harboring wild-type HBV genotype D accession #V01460 infected in human HepG2 cells assessed as reduction in viral replicative intermediate DNA level at 370 nM incubated for 5 days by Southern blot analysis (reference value: 100%). As to conditions: time 5 day. Details: scale not given: the % may be the effect or the level left. It is filed as functional.

Series [5] has as its system Hepatitis B virus. In words: Antiviral activity against adenovirus AdH294-WT harboring wild-type HBV genotype D accession #V01460 infected in human HepG2 cells assessed as reduction in viral replicative intermediate DNA level at 1100 nM incubated for 5 days by Southern blot analysis (reference value: 100%). The series is classed as functional. Details: scale not given: the % may be the effect or the level left. Particulars: time 5 day.

For series [6], the system named is Hepatitis B virus. In words: Antiviral activity against adenovirus AdH294-WT harboring wild-type HBV genotype D accession #V01460 infected in human HepG2 cells assessed as reduction in viral replicative intermediate DNA level at 4 nM incubated for 5 days by Southern blot analysis (reference value: 100%). The series is classed as functional. Also noted: scale not given: the % may be the effect or the level left. Particulars: time 5 day.

For series [7], the system named is Hepatitis B virus. In words: Antiviral activity against ETV-resistant and adenovirus AdH294-7LR harboring wild-type HBV infected in human HepG2 cells assessed as viral replicative intermediate DNA level at 3300 nM incubated for 5 days by Southern blot analysis (reference value: 100%). The series is classed as functional. As to conditions: time 5 day.
Series [8] relates to Hepatitis B virus. In words: Antiviral activity against ETV-resistant and adenovirus AdH294-7LR harboring wild-type HBV infected in human HepG2 cells assessed as viral replicative intermediate DNA level at 10000 nM incubated for 5 days by Southern blot analysis (reference value: 100%). It is filed as functional. As to conditions: time 5 day.
The test system of series [9] is Hepatitis B virus. In words: Antiviral activity against ETV-resistant and adenovirus AdH294-7LR harboring wild-type HBV infected in human HepG2 cells assessed as viral replicative intermediate DNA level at 13 nM incubated for 5 days by Southern blot analysis (reference value: 100%). It is filed as functional. As to conditions: time 5 day.
The subject of series [10] is Hepatitis B virus. In words: Antiviral activity against HBV infected hydrodynamic injection C57BL/6 mouse model assessed as reduction in serum HBV DNA level at 0.6 to 60 mg/kg, po QD for 6 days by qPCR analysis. Particulars: dose mg/kg 0.6-60, time 6.0 day. The series is classed as functional, organism-based. (In general: In qPCR the cycle at which signal appears reflects the starting amount.)

The subject of series [11] is Hepatitis B virus. In words: Antiviral activity against adenovirus AdH294-WT harboring wild-type HBV genotype D accession #V01460 infected in human HepG2 cells assessed as reduction in viral replicative intermediate DNA level at 10000 nM incubated for 5 days by Southern blot analysis (reference value: 100%). It is filed as functional. Details: scale not given: the % may be the effect or the level left. Particulars: time 5 day.

The subject of series [12] is Hepatitis B virus. In words: Antiviral activity against adenovirus AdH294-WT harboring wild-type HBV genotype D accession #V01460 infected in human HepG2 cells assessed as reduction in viral replicative intermediate DNA level at 40 nM incubated for 5 days by Southern blot analysis (reference value: 100%). It is filed as functional. Also noted: scale not given: the % may be the effect or the level left. As to conditions: time 5 day.

Series [13] concerns Hepatitis B virus. In words: Antiviral activity against ETV-resistant and adenovirus AdH294-7LR harboring wild-type HBV infected in human HepG2 cells assessed as viral replicative intermediate DNA level at 4 nM incubated for 5 days by Southern blot analysis (reference value: 100%). It is filed as functional. As to conditions: time 5 day.
Series [14] concerns Hepatitis B virus. In words: Antiviral activity against ETV-resistant and adenovirus AdH294-7LR harboring wild-type HBV infected in human HepG2 cells assessed as viral replicative intermediate DNA level at 40 nM incubated for 5 days by Southern blot analysis (reference value: 100%). The series is classed as functional. As to conditions: time 5 day.
Series [15] can be described thus: Toxicity in HBV infected hydrodynamic injection C57BL/6 mouse model assessed as effect on body weight at 0.6 to 60 mg/kg, po QD for 6 days. The series is classed as organism-based. Particulars: in vivo, 144 h, dose 0.6-60 mg/kg, time 6 day.
Series [16] has as its system Hepatitis B virus. In words: Antiviral activity against adenovirus AdH294-WT harboring wild-type HBV genotype D accession #V01460 infected in human HepG2 cells assessed as reduction in viral replicative intermediate DNA level at 13 nM incubated for 5 days by Southern blot analysis (reference value: 100%). The series is classed as functional. Particulars: time 5 day. Details: scale not given: the % may be the effect or the level left.

Series [17] relates to Hepatitis B virus. In words: Antiviral activity against ETV-resistant and adenovirus AdH294-7LR harboring wild-type HBV infected in human HepG2 cells assessed as reduction in viral replicative intermediate DNAs up to 100 uM incubated for 5 days by Southern blot analysis. It is filed as functional, organism-based. Particulars: dose microM <=100, time 5.0 day.
For series [18], the system named is Hepatitis B virus. In words: Antiviral activity against adenovirus AdH294-WT harboring wild-type HBV genotype D accession #V01460 infected in human HepG2 cells assessed as reduction in viral replicative intermediate DNA level at 120 nM incubated for 5 days by Southern blot analysis (reference value: 100%). The series is classed as functional. Also noted: scale not given: the % may be the effect or the level left. As to conditions: time 5 day.

The subject of series [19] is Hepatitis B virus. In words: Antiviral activity against ETV-resistant and adenovirus AdH294-7LR harboring wild-type HBV infected in human HepG2 cells assessed as viral replicative intermediate DNA level at 1100 nM incubated for 5 days by Southern blot analysis (reference value: 100%). The series is classed as functional. Particulars: time 5 day.
In series [20] the test system is Hepatitis B virus. In words: Antiviral activity against ETV-resistant and adenovirus AdH294-7LR harboring wild-type HBV infected in human HepG2 cells assessed as viral replicative intermediate DNA level at 120 nM incubated for 5 days by Southern blot analysis (reference value: 100%). It is filed as functional. Particulars: time 5 day.
The test system of series [21] is Hepatitis B virus. In words: Antiviral activity against adenovirus AdH294-WT harboring wild-type HBV genotype D accession #V01460 infected in human HepG2 cells assessed as reduction in viral replicative intermediate DNA level at 3300 nM incubated for 5 days by Southern blot analysis (reference value: 100%). It is filed as functional. Also noted: scale not given: the % may be the effect or the level left. Particulars: time 5 day.

Series [22] deals with Hepatitis B virus. In words: Antiviral activity against HBV infected in human HepDE19 cells assessed as reduction in HBV cccDNA incubated for 9 days by qPCR analysis. As to conditions: HepDE19, 216 h. The series is classed as functional, organism-based.
Series [23] concerns Hepatitis B virus. In words: Antiviral activity against ETV-resistant and adenovirus AdH294-7LR harboring wild-type HBV infected in human HepG2 cells assessed as reduction in viral replicative intermediate DNAs at 4 to 1000 nM incubated for 5 days by Southern blot analysis. The series is classed as functional, organism-based. As to conditions: time 5.0 day.
A short description of series [24]: Toxicity in human HepDE19 cells assessed as reduction in beta-actin level incubated for 9 days by qPCR analysis. Particulars: time 9 day. It is filed as cell-based.
Series [25] is described as follows: Selectivity index, […] against HBV infected in human HepDE19 cells to CC50 for toxicity in human HepDE19 cells. The series is classed as cell-based. As to conditions: read-out: Ratio CC50/IC50.

For the compound `Nc1ncnc2c1ncn2[C@H]1C[C@@H](OCP(=O)(O)O)CO1`, the Cp in [1] was < 1.01 ng/mL.
For `C=C1[C@H](CO)[C@@H](O)C[C@@H]1n1cnc2c(=O)[nH]c(N)nc21.O` [ENTECAVIR], the Activity came out at 60.4% in the series on Hepatitis B virus [2]; 10.5% with Hepatitis B virus [4]; 7% with Hepatitis B virus [5]; 46.4% in the series on Hepatitis B virus [6]; 35.5% with Hepatitis B virus [7]; 37% in the series on Hepatitis B virus [8]. Besides, the Activity is 92.2% in the series on Hepatitis B virus [9]; “Dose-dependent effect” in the series on Hepatitis B virus [10]; 2.9% with Hepatitis B virus [11]; 16% with Hepatitis B virus [12]; 93.9% in the series with Hepatitis B virus [13]; 98.6% with Hepatitis B virus [14]. Besides, the Activity entry is on record as “Non-Toxic” in series [15]; 25.7% in the series on Hepatitis B virus [16]; 13.8% in the series with Hepatitis B virus [18]; 51.2% with Hepatitis B virus [19]; 63.8% with Hepatitis B virus [20]; 4.6% in the series with Hepatitis B virus [21]. In the series with Hepatitis B virus [3], the result was Active. For the same compound, the outcome in the series on Hepatitis B virus [17] was inactive.
`CC(C)OC(=O)[C@H](C)N[P@](=O)(CO[C@H](C)Cn1cnc2c(N)ncnc21)Oc1ccccc1` [TENOFOVIR ALAFENAMIDE]: the Activity with Hepatitis B virus [2] was determined as 5%; in the series with Hepatitis B virus [4] it was 4.2%; with Hepatitis B virus [5] it was 1.3%; with Hepatitis B virus [6] it was 75.6%; with Hepatitis B virus [7], 1.2%; in the series with Hepatitis B virus [8] it was 0%. For the same compound, the Activity with Hepatitis B virus [9] was 38.3%; in the series on Hepatitis B virus [10] it was “Dose-dependent effect”; in the series on Hepatitis B virus [11] it was 0%; in the series on Hepatitis B virus [12], 18.1%; in the series on Hepatitis B virus [13] it was 93.7%; in the series with Hepatitis B virus [14] it was 21.4%. The Activity result is reported as “Non-Toxic” in series [15]; 40.7% in the series on Hepatitis B virus [16]; 10.8% in the series with Hepatitis B virus [18]; 2.6% with Hepatitis B virus [19]; 11.3% in the series on Hepatitis B virus [20]; 0% in the series on Hepatitis B virus [21]. In addition, the IC50 in the series with Hepatitis B virus [22] is 40 nM. The IC90 in the series with Hepatitis B virus [22] (time 9 day) is > 100 nM. Moreover, in the series with Hepatitis B virus [23], the result was Active. In series [24], the CC50 at 216 h is 500 nM. For the same compound, the selectivity ratio in series [25] is 13.
